Consider 1 molecule from PMC10889159, “Synthesis and Antitumor Activity Evaluation of Novel Echinatin Derivatives with a 1,3,4-Oxadiazole Moiety” (International Journal of Molecular Sciences, 2024).

In one data set the test system is HCT116. The data set is described as follows: CCK8 antiproliferative assay, HCT116. To be noted: Homo sapiens, HCT-116; CCK8, 48 h, mean ± SD, n = 3. In kind it is cell-based. As for the experimental part: (§1) For all biological assays, all of the synthesized compounds were dissolved in DMSO. The cytotoxicity of all of the target compounds against the HCT116, K562, KU812, and HT-29 cells was determined by an CCK8 assay in vitro using adriamycin and echinatin as the controls. About 3000 cells per well were seeded in a 96-well plate and incubated for 24 h. Then, the cells were stimulated with different concentrations of test compounds for 48 h. The CCK8 solution (100 µL 0.5 mg/mL^−1) was added to each well, and the cells were incubated for another 4 h. Then, the absorbance of the samples was measured at 450 nm. The IC50 values were calculated according to the Logit method after obtaining the inhibitory rate. All experiments were repeated three times.
Background: Formazan colour is commonly taken as a measure of viable cells.

Data set [1] concerns HCT116 cells. Kind of data set: Western blot of c-KIT downstream proteins and caspase-3. In kind it is cell-based, human. As to conditions: 48 h. As for the experimental part:
HCT116 cells were seeded at a density of 4 × 10^5 cells per well and treated with various concentrations of Compound T4 (0, 1.25, 2.5, and 5 µM) for 48 h. After this, cells were collected and washed twice with ice-cold DPBS. The pellets were resuspended in a total protein extraction buffer (20 mM HEPES, 350 mM NaCl, 20% glycerol, 1% NP-40, 1 mM MgCl2, 0.5 mM EDTA, 0.1 mM EGTA, 0.1 mM DTT, 0.1 mM PMSF) containing a protease inhibitor cocktail and incubated on ice for 30 min with intermittent mixing. The protein concentration was measured using the Bradford reagent (Bio-Rad Laboratories Inc., Hercules, CA, USA). An equal amount (20 µg) of protein was loaded on 10% poly acrylamide gels and transferred to a nitrocellulose membrane. After blocking with 5% skimmed milk, the membrane was incubated at 4 °C overnight with specific primary antibodies. The membrane was washed and incubated at room temperature for 1 h with secondary antibodies conjugated with horseradish peroxidase (HRP). Finally, the immunoblot was developed for visualization using a chemiluminescence kit. Primary antibodies for Cleaved-caspase 3, MEK, p-MEK, Erk1/2, p-Erk1/2, mTOR, Akt, p-Akt, and GAPDH and all secondary antibodies were obtained from Santa Cruz Biotechnology (Santa Cruz, CA, USA).
(Immunoblotting shows a protein as a band on a membrane.)

The next data set concerns HT-29. Kind of data set: CCK8 antiproliferative assay, HT-29. As to conditions: Homo sapiens, CCK8, 48 h, mean ± SD, n = 3. In kind it is cell-based. As for the experimental part:
as §1

Data set [2] has as its system HCT116 cells. The data set is described as follows: TUNEL staining. In kind it is cell-based, human. To be noted: varying concentrations. As for the experimental part:
The slides were immersed in 4% paraformaldehyde (pH 7.4) for 25 min at room temperature and then washed with PBS 3 times. The cells were immersed in 0.1% Triton X-100 solution prepared with PBS for 10 min (operation on ice) and then washed twice with PBS. Dilute 5× equilibration buffer with deionized water and 100 µL 1× equilibration buffer were added to each climbing tablet to cover the sample area to be tested, then incubated at room temperature for 15 min. […] The slides were placed in a wet box and incubated at 37 °C for 60 min. The wet box was wrapped with aluminum foil to avoid light. These were then washed three times with PBS with DAPI dripped and incubated in the dark for 5 min. The nucleus of the specimen was stained. Water-absorbent paper was used to absorb the liquid on the climbing sheet, then a sealing liquid containing an anti-fluorescence quenching agent was used to seal the film before the images were observed and collected under a fluorescence microscope.

For data set [3], the system named is HCT116 cells. The data set is described as follows: Cell cycle analysis (PI staining, flow cytometry). In kind it is cell-based, human. As for the experimental part:
The effects of Compound T4 on cell cycle progression were verified by using a standard (PI) staining procedure followed by flow cytometry analysis. HCT116 cells were seeded in 6-well plates and incubated for 24 h until the cells adhered. […] Control cells and treated cells were washed twice with PBS, centrifuged (1000 rpm, 5 min), and collected at a final concentration of 50,000 cells. Then, a single cell suspension was fixed in ice-cold 70% (v/v) ethanol overnight at 4 °C. The cells were washed again with PBS. A total of 100 μL RNase A was added and the cells were incubated at 37 °C for 30 min. The cell DNA was stained with 400 μL PI for 30 min. Data collection and analysis were carried out using a flow cytometer (Beckman Coulter cytoFLEX, USA).
In general terms: A flow cytometer gives signals particle by particle.

Another data set relates to CCC-HIE-2. The data set is described as follows: Cytotoxicity toward CCC-HIE-2 cells. In kind it is cell-based, human.
Data set [4] relates to HCT116 cells. Kind of data set: Intracellular ROS generation (DCFH-DA, flow cytometry). In kind it is cell-based, human. As to conditions: escalating concentrations. As for the experimental part: Approximately 4 × 10^5 cells per well were seeded in a 6-well plate and incubated for 12 h, then the discarded medium was replaced with fresh medium containing different concentrations of Compound T4 (0 μM, 0.625 μM, 1.25 μM, 2.5 μM, and 5 μM) for 48 h. ROS production was detected by using the peroxide-sensitive fluorescent probe DCFH-DA. After treatment with different concentrations of T4, the cells were incubated with 10 µg/mL DCFH-DA at 37 °C for 20 min. Then, the cells were harvested. Samples were analyzed by flow cytometry (FACS Calibur, Becton-Dickinson, East Rutherford, NJ, USA).

The subject of data set [5] is four cancer cell lines (K562, KU812, HT-29, HCT116). Kind of data set: CCK8 antiproliferative assay, summary over the four cancer cell lines. It is filed as cell-based. To be noted: Homo sapiens; range over K562, KU812, HT-29, HCT116; read-out: IC50 against the four cancer cell lines. As for the experimental part:
as §1

Data set [6] has as its system HCT116 cells. Kind of data set: Cell colony formation assay. As to conditions: 1.25, 2.5, 5 µM, 14 d. It is filed as cell-based, human. As for the experimental part:
To investigate the effects of echinatin derivatives on the clonogenic potential of HCT116 cells, the colony formation assay was performed as previously described. HCT116 cells were seeded into 6-well plates at 37 °C with 5% CO2 for 24 h and then treated with Compound T4 and echinatin at various concentrations (0 µM, 1.25 µM, 2.5 µM, and 5 µM) for 14 d. Then, cells were stained with crystal violet solution and clone numbers were counted directly with the naked eye.

Data set [7] has as its system HCT116 cells. Kind of data set: Wound healing assay. In kind it is cell-based, human. As to conditions: 24 h, serum-free medium. As for the experimental part: Five lines were drawn evenly on the back of the 6-well plate and transferred HCT116 cells (1 × 10^6/well) in a 6-well plate until a uniform monolayer of cells formed at the bottom of the 6-well plate. Then, we drew lines on the cells using a 200 μL pipette tip. We then carefully washed the damaged cell monolayer with PBS, then treated with different concentrations of Compound T4, and incubated in serum-free medium for 24 h. We then used an inverted microscope to take photos of the 6-hole plate at the 0 and 24 h time points and used ImageJ for processing and analysis.

The target in another data set is c-KIT (Homo sapiens, UniProt P10721). The data set is described as follows: Biochemical c-KIT activity assay (ADP-Glo). As to conditions: 20 μM ATP, read-out: IC50 for c-KIT inhibition. As for the experimental part: The enzymatic activities of c-KIT were determined by in vitro kinase assays using the ADP-Glo reagent (Promega, Madison, WI, USA) according to the manufacturer’s instructions. Briefly, 250 ng of c-KIT protein was incubated with compounds in 10 μL of reaction buffer (40 mM Tris−HCl, pH 7.4, 2 mM MnCl2, 2 mM DTT, 20 mM MgCl2, 0.1 mg/mL bovine serum albumin, 1 mM Na3VO4) containing 20 μΜ ATP and 40 μM poly (Glu4-Tyr1) as substrates at 30 °C for 150 min. The ADP-Glo reagent was then added, and the mixture was incubated at 25 °C for 40 min. The kinase detection reagent was added for another 30 min at 25 °C. The converted ADP was determined by luminescence measurement using a Wallac Vector 1420 multilabel counter (PerkinElmer).
Chain of c-KIT (P10721 26-976): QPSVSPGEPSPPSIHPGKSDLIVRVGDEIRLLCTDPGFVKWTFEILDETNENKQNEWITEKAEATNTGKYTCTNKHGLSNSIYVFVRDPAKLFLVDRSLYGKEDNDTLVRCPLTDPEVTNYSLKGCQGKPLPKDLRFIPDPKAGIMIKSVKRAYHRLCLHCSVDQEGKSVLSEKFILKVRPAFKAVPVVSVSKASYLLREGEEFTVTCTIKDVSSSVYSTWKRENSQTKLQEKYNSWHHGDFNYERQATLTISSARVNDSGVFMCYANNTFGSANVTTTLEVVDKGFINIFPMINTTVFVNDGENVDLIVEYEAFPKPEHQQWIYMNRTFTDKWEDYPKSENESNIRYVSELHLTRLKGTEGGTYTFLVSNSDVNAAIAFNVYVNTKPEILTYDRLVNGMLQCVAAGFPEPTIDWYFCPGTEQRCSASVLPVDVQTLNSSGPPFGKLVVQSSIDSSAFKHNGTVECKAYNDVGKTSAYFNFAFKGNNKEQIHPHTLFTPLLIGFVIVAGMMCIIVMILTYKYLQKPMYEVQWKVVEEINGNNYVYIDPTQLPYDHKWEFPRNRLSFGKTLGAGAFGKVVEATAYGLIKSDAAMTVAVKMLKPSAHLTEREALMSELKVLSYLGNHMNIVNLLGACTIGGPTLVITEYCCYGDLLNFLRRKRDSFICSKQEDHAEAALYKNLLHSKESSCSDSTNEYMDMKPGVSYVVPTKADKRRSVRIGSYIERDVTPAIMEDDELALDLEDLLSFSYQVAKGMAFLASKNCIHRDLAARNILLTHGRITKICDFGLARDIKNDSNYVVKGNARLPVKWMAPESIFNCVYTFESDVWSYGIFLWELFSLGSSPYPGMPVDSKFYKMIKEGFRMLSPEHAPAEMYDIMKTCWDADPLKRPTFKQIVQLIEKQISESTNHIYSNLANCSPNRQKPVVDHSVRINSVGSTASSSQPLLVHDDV

The test system of a further data set is KU812. The data set is described as follows: CCK8 antiproliferative assay, KU812. As to conditions: Homo sapiens, CCK8, 48 h, mean ± SD, n = 3. In kind it is cell-based. As for the experimental part: as §1
The next data set has as its system K562. The data set is described as follows: CCK8 antiproliferative assay, K562. In kind it is cell-based. To be noted: Homo sapiens, CCK8, 48 h, mean ± SD, n = 3. As for the experimental part:
as §1

Structures are written as SMILES.

Consider `COc1cc(O)ccc1/C=C/C(=O)c1ccc(OCc2nnc(Nc3ccc(C(F)(F)F)cc3)o2)cc1` [Compound T4, (E)-3-(4-Hydroxy-2-methoxyphenyl)-1-{4-{{5-{[4-(trifluoromethyl)phenyl]amino}-1,3,4-oxadiazol-2-yl}methoxy}phenyl}propenone], for which the melting point (as a rule, the temperature of the solid-liquid transition) lay in the range of 180.5 to 181.4 °C. For the same molecule, in the data set with HCT116, the IC50 (usually the concentration needed to halve the response being measured) turned out to be 1.71 ± 0.46 µM. In addition, in the data set on HCT116 cells [1] (1.25, 2.5, 5 μM), the “expression of the phosphorylated forms of Akt, MEK, Erk1/2, and mTOR” value is recorded as “significantly downregulated”; the “protein expression levels of Akt, MEK, and Erk1/2” value is recorded as “not significantly altered”. Moreover, the “expression of caspase-3, as a percentage of GAPDH” value with HCT116 cells [1] (upregulated from 24% following T4 treatment (0-5 μM)) was 49%. This molecule had an IC50 with HT-29 of 2.87 ± 0.32 µM. The “apoptotic cells (TUNEL red fluorescence)” value with HCT116 cells [2] is recorded as “increase in apoptotic cells”. Moreover, the “distribution of cell cycle phase (%): S” value with HCT116 cells [3] (5 μM, 48 h (control 28.0%)) came out at 16.8%. For the same molecule, the “distribution of cell cycle phase (%): G0/G1” value in the data set on HCT116 cells [3] (5 μM, 48 h (control 54.7%)) was determined as 65.1%. Besides, the cell cycle arrest result in the data set with HCT116 cells [3] (various concentrations, 48 h) is “blocked the cell cycle in the G0/G1 phase”. In the data set with CCC-HIE-2, the “growth of CCC-HIE-2 cells” value is “not significantly influenced”. For the same molecule, the “SI (selectivity index)” value in the data set on CCC-HIE-2 (CCC-HIE-2 vs HCT116) came to 16.1. The molecule also registered an IC50 with CCC-HIE-2 (human embryonic intestinal mucosal derived cell line) of 27.6 ± 1.37 µM. Further, the “generation and accumulation of ROS” value in the data set on HCT116 cells [4] is “concentration-dependent generation and accumulation of ROS”. The IC50 in [5] was in the range of 1.71 to 8.6 µM. Besides, the cell colony number entry in the data set with HCT116 cells [6] is “decreased in a dose-dependent manner”. Moreover, the HCT116 cell migration result in the data set on HCT116 cells [7] is reported as “strongly inhibited”. Also, the IC50 on c-KIT was found to be 0.178 µM. Half-maximal inhibition in the data set on KU812 (IC50) was put at 8.09 ± 0.91 µM. For the same molecule, inhibition in the data set on K562 was half-maximal at 8.6 ± 0.61 µM (IC50).
